This is an account of results in patent US9771337B2, “Neprilysin inhibitors” (THERAVANCE BIOPHARMA R&D IP, LLC, priority 2011, dated 2017).

For this assay, the target named is T1, human NEP (Homo sapiens, UniProt P08473).
T1 construct: purchased R&D Systems, Minneapolis, Minn; 1182-ZN
Kind of assay: In vitro enzyme inhibition assay, inhibitor potency at human NEP. It counts as biochemical. The note with it: pKi values at human NEP; recombinant human NEP, fluorogenic peptide substrate 10 μM, 37° C. How it is done: The inhibitory activities of compounds at human and rat neprilysin (EC 3.4.24.11; NEP) and human angiotensin converting enzyme (ACE) were determined using in vitro assays as described below.
Recombinant human NEP and recombinant human ACE were obtained commercially (R&D Systems, Minneapolis, Minn., catalog numbers 1182-ZN and 929-ZN, respectively). The fluorogenic peptide substrate Mca-D-Arg-Arg-Leu-Dap-(Dnp)-OH (Medeiros et al. (1997) Braz. J. Med. Biol. Res. 30:1157-62; Anaspec, San Jose, Calif.) and Abz-Phe-Arg-Lys(Dnp)-Pro-OH (Araujo et al. (2000) Biochemistry 39:8519-8525; Bachem, Torrance, Calif.) were used in the NEP and ACE assays respectively.
The assays were performed in 384-well white opaque plates at 37° C. using the fluorogenic peptide substrates at a concentration of 10 μM in Assay Buffer (NEP: 50 mM HEPES, pH 7.5, 100 mM NaCl, 0.01% polyethylene glycol sorbitan monolaurate (Tween-20), 10 μM ZnSO4; ACE: 50 mM HEPES, pH 7.5, 100 mM NaCl, 0.01% Tween-20, 1 μM ZnSO4).
Test compounds were assayed over the range of concentrations from […] to 20 μM. Test compounds were added to the enzymes and incubated for 30 minute at 37° C. prior to initiating the reaction by the addition of substrate. Reactions were terminated after 20 minutes of incubation at 37° C. by the addition of glacial acetic acid to a final concentration of 3.6% (v/v).
Plates were read on a fluorometer with excitation and emission wavelengths set to 320 nm and 405 nm, respectively. Inhibition constants were obtained by nonlinear regression of the data using the equation (GraphPad Software, Inc., San Diego, Calif.): v=v0/[1+(I/K′)] where v is the reaction rate, v0 is the uninhibited reaction rate, I is the inhibitor concentration and K′ is the apparent inhibition constant.
Compounds of the invention were tested in this assay and found to have pKi values at human NEP as follows.

T1 sequence (P08473 whole entry): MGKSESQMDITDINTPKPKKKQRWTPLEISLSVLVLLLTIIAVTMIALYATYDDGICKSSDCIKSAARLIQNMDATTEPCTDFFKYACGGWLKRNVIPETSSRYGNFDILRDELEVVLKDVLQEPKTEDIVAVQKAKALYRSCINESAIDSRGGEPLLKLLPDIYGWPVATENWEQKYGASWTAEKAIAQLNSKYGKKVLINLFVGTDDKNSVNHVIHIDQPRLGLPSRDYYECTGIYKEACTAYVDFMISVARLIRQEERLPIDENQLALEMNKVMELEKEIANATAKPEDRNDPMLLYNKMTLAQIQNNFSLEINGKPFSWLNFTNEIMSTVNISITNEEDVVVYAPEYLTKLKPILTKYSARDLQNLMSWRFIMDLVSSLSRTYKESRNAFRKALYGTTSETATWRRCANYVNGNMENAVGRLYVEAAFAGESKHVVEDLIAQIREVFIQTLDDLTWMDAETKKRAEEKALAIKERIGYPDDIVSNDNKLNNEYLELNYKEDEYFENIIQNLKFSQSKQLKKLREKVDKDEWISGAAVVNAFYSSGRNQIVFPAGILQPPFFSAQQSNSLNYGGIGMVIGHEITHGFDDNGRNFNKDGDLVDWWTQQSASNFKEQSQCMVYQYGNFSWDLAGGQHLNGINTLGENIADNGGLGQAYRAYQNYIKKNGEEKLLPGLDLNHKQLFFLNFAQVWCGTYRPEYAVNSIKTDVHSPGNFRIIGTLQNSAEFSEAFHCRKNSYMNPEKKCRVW

What is called Ki is a measure of affinity in units of concentration, obtained from inhibition or displacement. On to `O=C(N[C@H](Cc1ccccc1)[C@@H](O)C(=O)O)c1cc(Cl)c2nn[nH]c2c1` [Example 5-13, (2R,3R)-3-[(7-Chloro-3H-benzotriazole-5-carbonyl)-amino]-2-hydroxy-4-phenyl-butyric acid], for which the inhibition constant Ki is 12.6 to 100 nM.
Turning to `COc1ccc(Cn2oc(C(=O)N[C@H](Cc3ccccc3Cl)[C@@H](O)C(=O)O)cc2=O)c(F)c1F` [Example 2-17, (2R,3R)-4-(2-Chloro-phenyl)-3-{[2-(2,3-difluoro-4-methoxy-benzyl)-3-oxo-2,3-dihydro-isoxazole-5-carbonyl]-amino}-2-hydroxy-butyric acid], the inhibitory constant (Ki) is 1.26 to 10 nM.
With `O=C(N[C@H](Cc1ccccc1Cl)[C@@H](O)C(=O)O)c1nn(Cc2ccc(Cl)cc2F)c(=O)[nH]1` [Example 2-23, (2R,3R)-3-{[1-(4-Chloro-2-fluoro-benzyl)-5-oxo-4,5-dihydro-1H-[1,2,4]triazole-3-carbonyl]-amino}-4-(2-chloro-phenyl)-2-hydroxy-butyric acid] the figure was 12.6 to 100 nM; with `O=C(N[C@H](Cc1ccccc1Cl)[C@@H](O)C(=O)O)c1cc(-c2ccc(Cl)cc2)no1` [Example 2-14, (2R,3R)-4-(2-Chloro-phenyl)-3-{[3-(4-chloro-phenyl)-isoxazole-5-carbonyl]-amino}-2-hydroxy-butyric acid], 1.26 to 10 nM.
As for `CCCc1nc2c(C)cc(C(=O)N[C@H](Cc3ccccc3)[C@@H](O)C(=O)O)cc2n1CC(=O)O` [Example 5-5, (2R,3R)-3-[(3-Carboxymethyl-7-methyl-2-propyl-3H-benzoimidazole-5-carbonyl)-amino]-2-hydroxy-4-phenyl-butyric acid], the figure is 12.6 to 100 nM; as for `O=C(N[C@H](Cc1ccccc1)[C@@H](O)C(=O)O)c1cc(-c2ccccc2C(=O)O)ccn1` [Example 5-26, 2-[2-((1R,2R)-1-Benzyl-2-carboxy-2-hydroxy-ethylcarbamoyl)-pyridin-4-yl]-benzoic acid], 1.26 to 10 nM.
As for `O=C(N[C@H](Cc1ccccc1Cl)[C@@H](O)C(=O)O)c1cnc(-c2ccccc2C(=O)O)c(F)c1` [Example 2-10, 2-{5-[(1R,2R)-2-Carboxy-1-(2-chloro-benzyl)-2-hydroxy-ethylcarbamoyl]-3-fluoro-pyridin-2-yl}-benzoic acid], the figure is 1.26 to 10 nM; as for `O=C(N[C@H](Cc1ccccc1)[C@@H](O)C(=O)O)c1cnc2nn[nH]c2c1` [Example 5-29, (2R,3R)-2-Hydroxy-4-phenyl-3-[(1H-[1,2,3]triazolo[4,5-b]pyridine-6-carbonyl)-amino]-butyric acid], 12.6 to 100 nM; as for `O=C(N[C@H](Cc1ccccc1Cl)[C@H](O)C(=O)O)c1ccc2nn[nH]c2c1` [Example 2-29, (2S,3R)-3-[(3H-Benzotriazole-5-carbonyl)-amino]-4-(2-chloro-phenyl)-2-hydroxy-butyric acid], 12.6 to 100 nM.
For `Cc1cc(-c2ccccc2C(=O)O)cc(C(=O)N[C@H](Cc2ccccc2Cl)[C@@H](O)C(=O)O)n1` [Example 2-1, 2-{2-[(1R,2R)-2-Carboxy-1-(2-chloro-benzyl)-2-hydroxy-ethylcarbamoyl]-6-methyl-pyridin-4-yl}-benzoic acid], the Ki was not above 1 nM.
